# Data published in ChEMBL document CHEMBL3414561, “Discovery of 4'-chloromethyl-2'-deoxy-3',5'-di-O-isobutyryl-2'-fluorocytidine (ALS-8176), a first-in-class RSV polymerase inhibitor for treatment of human respiratory syncytial virus infection” (J Med Chem, 2015).
# pEC50, pIC50: −log10 of the molar value. Active and inactive are the calls of the source. No cut-off for these calls is given here.
# How the values were obtained:
# [1] = system: Respiratory syncytial virus; assay: Antiviral activity against Respiratory syncytial virus subgenomic replicon system in 395 HeLa cells assessed as reduction in viral replication after 7 days by renilla luciferase assay; format: functional, organism-based; settings: human respiratory syncytial virus, 168 h
# [2] = Cytotoxicity against human HeLa cells assessed as cell viability by CellTiter-Glo luminescent assay; format: cell-based
# [3] = system: A549; assay: Drug metabolism in human A549 cells assessed as nucleotide 5'-triphosphate level measured per million cells at 50 uM after 1 to 5 days by LC/MS/MS analysis; format: ADME, cell-based; settings: a549, 50 µM
# [4] = Drug metabolism in human Hep2 cells assessed as nucleotide 5'-triphosphate level measured per million cells at 50 uM after 1 to 5 days by LC/MS/MS analysis; format: ADME, cell-based; settings: hep-2, 50 µM
# [5] = Drug metabolism in human normal bronchial epithelial cells assessed as nucleotide 5'-triphosphate level measured per million cells at 50 uM after 1 to 5 days by LC/MS/MS analysis; format: ADME, cell-based; settings: epithelial cell
# [6] = Drug metabolism in human nasal cells assessed as nucleotide 5'-triphosphate level measured per million cells at 50 uM after 1 to 5 days by LC/MS/MS analysis; format: ADME, cell-based
# [7] = Half life in Sprague-Dawley rat at 5 mg/kg, iv; format: ADME, organism-based; design: dose 5 mg/kg, route intravenous; settings: in vivo
# [8] = Clearance in Sprague-Dawley rat at 5 mg/kg, iv; format: ADME, organism-based; design: dose 5 mg/kg, route intravenous; settings: in vivo
# [9] = Volume of distribution at steady state in Sprague-Dawley rat at 5 mg/kg, iv; format: ADME, organism-based; design: dose 5 mg/kg, route intravenous; settings: in vivo, read-out: Vdss
# [10] = AUCinf in Sprague-Dawley rat at 5 mg/kg, iv; format: ADME, organism-based; design: time infinity, dose 5 mg/kg, route intravenous; settings: plasma
# [11] = Half life in Non-naive cynomolgus monkey at 5 mg/kg, iv; format: ADME, organism-based, Macaca fascicularis; design: dose 5 mg/kg, route intravenous; settings: in vivo
# [12] = Clearance in Non-naive cynomolgus monkey at 5 mg/kg, iv; format: ADME, organism-based, Macaca fascicularis; design: dose 5 mg/kg, route intravenous; settings: in vivo
# [13] = Volume of distribution at steady state in Non-naive cynomolgus monkey at 5 mg/kg, iv; format: ADME, organism-based, Macaca fascicularis; design: dose 5 mg/kg, route intravenous; settings: in vivo, read-out: Vdss
# [14] = AUCinf in Non-naive cynomolgus monkey at 5 mg/kg, iv; format: ADME, organism-based, Macaca fascicularis; design: time infinity, dose 5 mg/kg, route intravenous; settings: plasma
# [15] = system: Cynomolgus monkey; assay: Ratio of uridine metabolite to parent cytidine in Non-naive cynomolgus monkey at 5 mg/kg, iv; format: ADME, organism-based, Macaca fascicularis; design: dose 5 mg/kg, route intravenous; settings: in vivo
# [16] = Drug uptake in Non-naive cynomolgus monkey assessed as lung NMP level at 5 mg/kg, iv after 1 hr; format: ADME, organism-based, Macaca fascicularis; design: dose 5 mg/kg, route intravenous; settings: in vivo, read-out: Drug uptake
# [17] = Drug uptake in Non-naive cynomolgus monkey assessed as lung NTP level at 5 mg/kg, iv after 1 hr; format: ADME, organism-based, Macaca fascicularis; design: dose 5 mg/kg, route intravenous; settings: in vivo, read-out: Drug uptake
# [18] = Inhibition of Respiratory syncytial virus RNA polymerase in crude RSV RNP complex assessed as inhibition of [33P]CMP incorporation into RNA chain
# [19] = target: DNA-directed RNA polymerase, mitochondrial (Homo sapiens) (UniProt O00411); assay: Inhibition of human mitochondrial RNA polymerase assessed as 13-mer product using [33P]RNA/DNA primer/templates used by […] gel electrophoresis
# Chain of DNA-directed RNA polymerase, mitochondrial (Homo sapiens) (O00411 whole entry): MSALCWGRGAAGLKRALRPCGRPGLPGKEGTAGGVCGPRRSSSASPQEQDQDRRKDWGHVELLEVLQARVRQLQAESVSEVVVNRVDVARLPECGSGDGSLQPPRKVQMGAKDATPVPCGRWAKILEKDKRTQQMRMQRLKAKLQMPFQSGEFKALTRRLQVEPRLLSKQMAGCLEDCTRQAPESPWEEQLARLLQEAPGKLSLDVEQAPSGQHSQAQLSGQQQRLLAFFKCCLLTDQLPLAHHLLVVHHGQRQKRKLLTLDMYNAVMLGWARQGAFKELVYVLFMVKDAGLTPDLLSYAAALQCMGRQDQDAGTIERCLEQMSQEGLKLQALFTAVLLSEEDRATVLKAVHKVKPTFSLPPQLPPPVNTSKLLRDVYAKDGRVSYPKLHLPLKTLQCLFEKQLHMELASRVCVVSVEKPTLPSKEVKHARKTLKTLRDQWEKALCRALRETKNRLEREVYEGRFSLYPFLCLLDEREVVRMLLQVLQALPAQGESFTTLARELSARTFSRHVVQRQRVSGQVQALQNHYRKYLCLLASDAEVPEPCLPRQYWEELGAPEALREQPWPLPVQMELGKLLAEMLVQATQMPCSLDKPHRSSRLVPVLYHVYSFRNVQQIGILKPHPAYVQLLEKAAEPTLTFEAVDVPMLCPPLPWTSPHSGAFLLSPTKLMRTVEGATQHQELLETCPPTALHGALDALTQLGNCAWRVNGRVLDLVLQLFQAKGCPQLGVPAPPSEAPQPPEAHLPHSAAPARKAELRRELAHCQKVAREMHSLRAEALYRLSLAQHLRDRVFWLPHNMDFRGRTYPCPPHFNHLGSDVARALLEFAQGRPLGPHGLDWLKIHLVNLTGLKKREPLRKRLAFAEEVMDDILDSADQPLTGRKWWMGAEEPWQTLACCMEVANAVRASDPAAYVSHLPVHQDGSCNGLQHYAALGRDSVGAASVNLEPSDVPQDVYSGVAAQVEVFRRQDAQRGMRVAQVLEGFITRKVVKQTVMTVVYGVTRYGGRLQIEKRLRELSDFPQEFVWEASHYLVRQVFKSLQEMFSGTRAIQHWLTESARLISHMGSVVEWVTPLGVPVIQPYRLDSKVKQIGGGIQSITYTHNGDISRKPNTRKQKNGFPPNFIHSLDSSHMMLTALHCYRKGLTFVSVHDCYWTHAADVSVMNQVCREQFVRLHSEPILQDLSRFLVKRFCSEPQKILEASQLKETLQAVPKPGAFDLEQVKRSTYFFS
# [20] = target: DNA-directed RNA polymerase, mitochondrial (Homo sapiens) (UniProt O00411); assay: Binding affinity to human mitochondrial RNA polymerase assessed as compound incorporation using [33P]RNA/DNA primer/templates used by […] gel electrophoresis
# [21] = species on record: Homo sapiens; assay: Inhibition of human DNA-dependent DNA polymerase alpha using calf thymus DNA/[3H]dTTP as substrate by microplate scintillation reader; settings: concentration not given here
# [22] = target: DNA polymerase beta (Homo sapiens) (UniProt P06746); assay: Inhibition of human DNA-dependent DNA polymerase beta using calf thymus DNA/[3H]dTTP as substrate by microplate scintillation reader; settings: concentration not given here
# [23] = species on record: Homo sapiens; assay: Inhibition of human DNA-dependent DNA polymerase gamma using calf thymus DNA/[3H]dTTP as substrate by microplate scintillation reader; settings: concentration not given here
# [24] = species on record: Homo sapiens; assay: Inhibition of human DNA-directed RNA polymerase 2 using cytomegalovirus DNA fragment as substrate; settings: concentration not given here
SMILES,pEC50 [1],pIC50 [18],CC50 [2],other results
CO[C@]1(CO)O[C@@H](n2ccc(N)nc2=O)[C@H](F)[C@@H]1O,4.90,,> 100000 nM,
CCCCCC(=O)OC[C@@]1(CCl)O[C@@H](n2ccc(N)nc2=O)[C@H](F)[C@@H]1OC(=O)CCCCC,6.66,,> 100000 nM,
CC(C)C(=O)O[C@H]1[C@@H](F)[C@H](n2ccc(N)nc2=O)O[C@@]1(CO)CCl,6.80,,> 88000 nM,
CCCCCCCCCCCC(=O)O[C@H]1[C@@H](F)[C@H](n2ccc(N)nc2=O)O[C@@]1(CO)CCl,6.57,,> 89000 nM,
Nc1ccn([C@@H]2O[C@](CCl)(COP(=O)(O)OP(=O)(O)OP(=O)(O)O)[C@@H](O)[C@H]2O)c(=O)n1,,5.80,,
CCC(=O)OC[C@@]1(CCl)O[C@@H](n2ccc(N)nc2=O)[C@H](F)[C@@H]1OC(=O)CC,7.40,,> 100000 nM,
C=C[C@]1(CO)O[C@@H](n2ccc(N)nc2=O)[C@H](F)[C@@H]1O,5.72,,> 100000 nM,
[N-]=[N+]=N[C@]1(COP(=O)(O)OP(=O)(O)OP(=O)(O)O)O[C@@H](n2ccc(N)nc2=O)[C@H](F)[C@@H]1O,,7.00,,inhibition [19]: Active; Activity [20]: Active
Nc1ccn([C@@H]2O[C@@](CO)(C3CC3)[C@@H](O)[C@H]2F)c(=O)n1,6.25,,> 100000 nM,
[N-]=[N+]=N[C@]1(CO)O[C@@H](n2ccc(N)nc2=O)C(F)(F)[C@@H]1O,6.12,,> 100000 nM,
CC(C)C(=O)OC[C@@]1(CCl)O[C@@H](n2ccc(N)nc2=O)[C@H](F)[C@@H]1O,7.00,,> 90000 nM,
Nc1ccn([C@@H]2O[C@@](CO)(CCl)[C@@H](O)[C@H]2O)c(=O)n1,< 4.00,,> 100000 nM,
Nc1ccn([C@@H]2O[C@H](COP(=O)(O)OP(=O)(O)OP(=O)(O)O)[C@@H](O)[C@H]2F)c(=O)n1,,,,inhibition [19]: Active; Activity [20]: Active
C#C[C@]1(COP(=O)(O)OP(=O)(O)OP(=O)(O)O)O[C@@H](n2ccc(N)nc2=O)[C@H](F)[C@@H]1O,,6.89,,
Nc1ccn([C@@H]2O[C@H](COP(=O)(O)OP(=O)(O)OP(=O)(O)O)[C@@H](O)C2(F)F)c(=O)n1,,,,inhibition [19]: Active; Activity [20]: Active
CCC[C@]1(CO)O[C@@H](n2ccc(N)nc2=O)[C@H](F)[C@@H]1O,5.57,,> 100000 nM,
CSC[C@]1(CO)O[C@@H](n2ccc(N)nc2=O)[C@H](F)[C@@H]1O,6.29,,> 63000 nM,
[N-]=[N+]=N[C@]1(COP(=O)(O)OP(=O)(O)OP(=O)(O)O)O[C@@H](n2ccc(N)nc2=O)[C@@H](O)[C@@H]1O,,6.70,,

SMILES,pEC50 [1],pIC50 [18],CC50 [2],other results
[N-]=[N+]=N[C@]1(CO)O[C@@H](n2ccc(N)nc2=O)[C@H](O)[C@@H]1O [4'-AZIDOCYTIDINE],6.17,,> 80000 nM,
Nc1ccn([C@@H]2O[C@@](CO)(CCl)[C@@H](O)C2(F)F)c(=O)n1,4.19,,62000 nM,
C[C@]1(CO)O[C@@H](n2ccc(N)nc2=O)[C@H](F)[C@@H]1O,5.67,,> 100000 nM,
Nc1ccn([C@@H]2O[C@](CCl)(COP(=O)(O)OP(=O)(O)OP(=O)(O)O)[C@@H](O)[C@@H]2F)c(=O)n1,,5.31,,
CCCCCCCC(=O)OC[C@@]1(CCl)O[C@@H](n2ccc(N)nc2=O)[C@H](F)[C@@H]1O,7.52,,> 100000 nM,
Nc1ccn([C@@H]2O[C@H](COP(=O)(O)OP(=O)(O)OP(=O)(O)O)[C@@H](O)[C@@H]2O)c(=O)n1,,,,inhibition [19]: Active; Activity [20]: Active
[N-]=[N+]=N[C@]1(CO)O[C@@H](n2ccc(N)nc2=O)[C@@H](O)[C@@H]1O,6.28,,> 100000 nM,
Nc1ccn([C@@H]2O[C@@](CO)(CCl)[C@@H](O)[C@@H]2O)c(=O)n1,< 4.00,,> 100000 nM,
Nc1ccn([C@@H]2O[C@@](CO)(CCl)[C@@H](O)[C@@H]2F)c(=O)n1,< 4.00,,> 100000 nM,
C=CC[C@]1(COP(=O)(O)OP(=O)(O)OP(=O)(O)O)O[C@@H](n2ccc(N)nc2=O)[C@H](F)[C@@H]1O,,7.05,,
C=C[C@]1(COP(=O)(O)OP(=O)(O)OP(=O)(O)O)O[C@@H](n2ccc(N)nc2=O)[C@H](F)[C@@H]1O,,7.05,,
Nc1ccn([C@@H]2O[C@](CCl)(COP(=O)(O)OP(=O)(O)OP(=O)(O)O)[C@@H](O)[C@H]2F)c(=O)n1,,7.70,,inhibition [21]: < 50%; inhibition [22]: < 50%; inhibition [23]: < 50%; inhibition [24]: < 50%; inhibition [19]: inactive
[N-]=[N+]=N[C@]1(CO)O[C@@H](n2ccc(N)nc2=O)[C@H](F)[C@@H]1O,6.72,,> 100000 nM,
Nc1ccn([C@@H]2O[C@@](COP(=O)(O)OP(=O)(O)OP(=O)(O)O)(C3CC3)[C@@H](O)[C@H]2F)c(=O)n1,,6.70,,
[N-]=[N+]=N[C@]1(COP(=O)(O)OP(=O)(O)OP(=O)(O)O)O[C@@H](n2ccc(N)nc2=O)C(F)(F)[C@@H]1O,,6.52,,inhibition [21]: < 50%; inhibition [22]: < 50%; inhibition [23]: < 50%; inhibition [24]: < 50%; inhibition [19]: inactive
CSC[C@]1(COP(=O)(O)OP(=O)(O)OP(=O)(O)O)O[C@@H](n2ccc(N)nc2=O)[C@H](F)[C@@H]1O,,5.57,,
CCC[C@]1(COP(=O)(O)OP(=O)(O)OP(=O)(O)O)O[C@@H](n2ccc(N)nc2=O)[C@H](F)[C@@H]1O,,5.70,,

# Continued, in another order:
pEC50 [1],pIC50 [18],SMILES,CC50 [2],other results
6.80,,Nc1ccn([C@@H]2O[C@@](CO)(CF)[C@@H](O)[C@H]2F)c(=O)n1,> 100000 nM,Drug metabolism [3]: 55 pmol; Drug metabolism [4]: 27.9 pmol; Drug metabolism [5]: 153 pmol; Drug metabolism [6]: 240 pmol; half-life [7]: 9.49 h; clearance [8]: 2.69 mL/min/kg; Vd [9]: 1.87 L/kg; AUC(0-inf) [10]: 31800 ng·h/mL; half-life [11]: 7.66 h; clearance [12]: 54.3 mL/min/kg; Vd [13]: 5.6 L/kg; AUC(0-inf) [14]: 1540 ng·h/mL; Ratio [15]: 3.39; concentration [16]: 5580 nM; concentration [17]: 374 nM
,8.00,C[C@]1(COP(=O)(O)OP(=O)(O)OP(=O)(O)O)O[C@@H](n2ccc(N)nc2=O)[C@H](F)[C@@H]1O,,
5.95,,C#C[C@]1(CO)O[C@@H](n2ccc(N)nc2=O)[C@H](F)[C@@H]1O,> 100000 nM,
6.89,,CCCCC(=O)OC[C@@]1(CCl)O[C@@H](n2ccc(N)nc2=O)[C@H](F)[C@@H]1OC(=O)CCCC,> 100000 nM,
6.55,,CCCCCCCC(=O)OC[C@@]1(CCl)O[C@@H](n2ccc(N)nc2=O)[C@H](F)[C@@H]1OC(=O)CCCCCCC,> 66000 nM,
,7.15,CO[C@]1(COP(=O)(O)OP(=O)(O)OP(=O)(O)O)O[C@@H](n2ccc(N)nc2=O)[C@H](F)[C@@H]1O,,
,6.82,Nc1ccn([C@@H]2O[C@](CBr)(COP(=O)(O)OP(=O)(O)OP(=O)(O)O)[C@@H](O)[C@H]2F)c(=O)n1,,
,6.62,[N-]=[N+]=N[C@]1(COP(=O)(O)OP(=O)(O)OP(=O)(O)O)O[C@@H](n2ccc(N)nc2=O)[C@H](O)[C@@H]1O,,
5.58,,C=CC[C@]1(CO)O[C@@H](n2ccc(N)nc2=O)[C@H](F)[C@@H]1O,> 100000 nM,
7.40,,CC(C)[C@H](N)C(=O)OC[C@@]1(CCl)O[C@@H](n2ccc(N)nc2=O)[C@H](F)[C@@H]1O,> 100000 nM,
6.32,,Nc1ccn([C@@H]2O[C@@](CO)(CBr)[C@@H](O)[C@H]2F)c(=O)n1,> 100000 nM,
,6.82,CC[C@]1(COP(=O)(O)OP(=O)(O)OP(=O)(O)O)O[C@@H](n2ccc(N)nc2=O)[C@H](F)[C@@H]1O,,inhibition [21]: < 50%; inhibition [22]: < 50%; inhibition [23]: < 50%; inhibition [24]: < 50%; inhibition [19]: inactive
6.66,,CCCCCCCC(=O)O[C@H]1[C@@H](F)[C@H](n2ccc(N)nc2=O)O[C@@]1(CO)CCl,> 70000 nM,
,6.92,Nc1ccn([C@@H]2O[C@](CF)(COP(=O)(O)OP(=O)(O)OP(=O)(O)O)[C@@H](O)[C@H]2F)c(=O)n1,,inhibition [21]: < 50%; inhibition [22]: < 50%; inhibition [23]: < 50%; inhibition [24]: < 50%; inhibition [19]: Active; Activity [20]: Active
